Laboratory results as given in patent publication US4783443A, “Amino acyl cephalosporin derivatives” (The University of Chicago, priority 1986, dated 1988).

How the values were obtained:
Enterobacter areogenes = assay: Minimum inhibitory concentration (MIC); assay type: cell-based; conditions: Gram-negative
Text: (§1) The antibacterial effects of compounds of the invention have been assessed by determination of the minimum inhibitory concentration (M.I.C.) value against a variety of Gram-negative and -positive bacteria. The microbial susceptibility data for four compounds, together with those for the antibacterial dipeptide beta-Cl-LAla-beta-Cl-LAla, are given in Table I.
(§2) in uM to facilitate a meaningful comparison of the approximate MICs among
(§3) the tested compounds; an appreciation of the MIC values in ug/mL can be
(§4) obtained by multiplying each value (μM) by 0.55

Enterobacter cloacae = assay: Minimum inhibitory concentration (MIC); assay type: cell-based; conditions: Gram-negative
Text: as §1, §2, §3, §4

Escherichia coli CR = assay: Minimum inhibitory concentration (MIC); assay type: cell-based; conditions: Escherichia coli CR
Text: as §1, §2, §3, §4

Escherichia coli JSR-O = assay: Minimum inhibitory concentration (MIC); assay type: cell-based; conditions: Escherichia coli JSR-O; parental strain
Text: as §1, §2, §3, §4

[1] = test system: Hemophilus influenzae 236; assay: Minimum inhibitory concentration (MIC); assay type: cell-based
Text: as §1, §2, §3, §4

[2] = test system: Hemophilus influenzae 238; assay: Minimum inhibitory concentration (MIC); assay type: cell-based
Text: as §1, §2, §3, §4

[3] = test system: Hemophilus influenzae 487; assay: Minimum inhibitory concentration (MIC); assay type: cell-based; conditions: possesses a betalactamase
Text: as §1, §2, §3, §4

Klebsiella pneumoniae = assay: Minimum inhibitory concentration (MIC); assay type: cell-based; conditions: Gram-negative
Text: as §1, §2, §3, §4

Morganella morganii = assay: Minimum inhibitory concentration (MIC); assay type: cell-based; conditions: Gram-negative
Text: as §1, §2, §3, §4

Psuedomonas aeruginosa = assay: Minimum inhibitory concentration (MIC); assay type: cell-based; conditions: Gram-negative
Text: as §1, §2, §3, §4

[4] = test system: Salmonella typhimurium LT 2; assay: Minimum inhibitory concentration (MIC); assay type: cell-based; conditions: Gram-negative
Text: as §1, §2, §3, §4

Salmonella typhimurium = assay: Minimum inhibitory concentration (MIC); assay type: cell-based; conditions: Gram-negative
Text: as §1, §2, §3, §4

Serratia marcescens = assay: Minimum inhibitory concentration (MIC); assay type: cell-based; conditions: Gram-negative
Text: as §1, §2, §3, §4

Shigella flexneri = assay: Minimum inhibitory concentration (MIC); assay type: cell-based; conditions: Gram-negative
Text: as §1, §2, §3, §4

[5] = test system: Staphylococcus aureus H-2690-8^R; assay: Minimum inhibitory concentration (MIC); assay type: cell-based; conditions: possesses a betalactamase
Text: as §1, §2, §3, §4

[6] = test system: Staphylococcus aureus PSL-13 Pen^R; assay: Minimum inhibitory concentration (MIC); assay type: cell-based; conditions: possesses a betalactamase
Text: as §1, §2, §3, §4

[7] = test system: Staphylococcus aureus PSL-14 Pen^R; assay: Minimum inhibitory concentration (MIC); assay type: cell-based; conditions: possesses a betalactamase
Text: as §1, §2, §3, §4

[8] = test system: Staphylococcus aureus PSL-15 Pen^R; assay: Minimum inhibitory concentration (MIC); assay type: cell-based; conditions: possesses a betalactamase
Text: as §1, §2, §3, §4

[9] = test system: Staphylococcus aureus PSL-16 Pen^R; assay: Minimum inhibitory concentration (MIC); assay type: cell-based; conditions: possesses a betalactamase
Text: as §1, §2, §3, §4

[10] = test system: Staphylococcus aureus T-4624-8 Pen^R; assay: Minimum inhibitory concentration (MIC); assay type: cell-based; conditions: possesses a betalactamase
Text: as §1, §2, §3, §4

Streptococcus agalactiae = assay: Minimum inhibitory concentration (MIC); assay type: cell-based; conditions: Gram positive
Text: as §1, §2, §3, §4

Streptococcus faecalis = assay: Minimum inhibitory concentration (MIC); assay type: cell-based; conditions: Streptococcus faecalis; Gram positive
Text: as §1, §2, §3, §4

[11] = test system: Escherichia coli JSR-O Cl-Pep^R; assay: Minimum inhibitory concentration (MIC); assay type: cell-based; conditions: Escherichia coli JSR-O Cl-Pep^R; selected for resistance to the peptide (f)
Text: as §1, §2, §3, §4
^(g) This ia an E. coli JSRO strain selected for resistance to the
A comparison of the data for E. coli strains JSR-O and JSR-O Cl-Pep^R is of special interest. E. coli Cl-Pep^R is an E. coli JSR-O mutant which was selected for resistance to the dipeptide (f). […] Note that the MIC values for (d) and (e) against E. coli Cl-Pep^R (100 and 50 μM, respectively) are quite similar.

Corynebacterium JKM-4754 = assay: Minimum inhibitory concentration (MIC); assay type: cell-based; conditions: Corynebacterium JKM-4754; resistant to cephalothin
Text: as §1, §2, §3, §4
(§5) ^(j) Resistant to cephalothin (MIC >200 uM);

Corynebacterium JKR-2285 = assay: Minimum inhibitory concentration (MIC); assay type: cell-based; conditions: Corynebacterium JKR-2285; resistant to cephalothin
Text: as §1, §2, §3, §4, §5

Escherichia coli Ceph^R = assay: Minimum inhibitory concentration (MIC); assay type: cell-based; conditions: Escherichia coli Ceph^R; resistant to cephalothin
Text: as §1, §2, §3, §4, §5

[12] = test system: Staphylococcus epidermidis (P^R M^R); assay: Minimum inhibitory concentration (MIC); assay type: cell-based; conditions: no strain number
Text: as §1, §2, §3, §4
(§6) ^(k) P and M refer to penicillin and methicillin, respectively.

[13] = test system: Staphylococcus epidermidis 1239(P^R M^R); assay: Minimum inhibitory concentration (MIC); assay type: cell-based
Text: as §1, §2, §3, §4, §6

[14] = test system: Staphylococcus epidermidis MO1554(P^S M^S); assay: Minimum inhibitory concentration (MIC); assay type: cell-based; conditions: Staphylococcus epidermidis MO1554 (penicillin- and methicillin-sensitive, P^S M^S)
Text: as §1, §2, §3, §4, §6

[15] = test system: Gram-negative and -positive bacteria; assay: Antibacterial activity, general trends of the MIC panel of Table I; assay type: cell-based
Text: as §1

[16] = test system: Gram-negative and -positive bacteria; conditions: Cheung et al., 1983; cited from earlier work

Betachloro-L-Ala-beta-chloro-L-Ala [(f), reference compound]
Minimum Inhibitory Concentration (Enterobacter areogenes): 25 µM
Minimum Inhibitory Concentration (Enterobacter cloacae): 12.5 µM
Minimum Inhibitory Concentration (Escherichia coli CR): 12.5 µM
Minimum Inhibitory Concentration (Escherichia coli JSR-O): 12.5 µM
Minimum Inhibitory Concentration [1]: > 200 µM
Minimum Inhibitory Concentration [2]: 12.5 µM
Minimum Inhibitory Concentration [3]: ≤ 0.78 µM
Minimum Inhibitory Concentration (Klebsiella pneumoniae): > 200 µM
Minimum Inhibitory Concentration (Morganella morganii): 200 µM
Minimum Inhibitory Concentration (Psuedomonas aeruginosa): > 200 µM
Minimum Inhibitory Concentration [4]: 200 µM
Minimum Inhibitory Concentration (Salmonella typhimurium): 200 µM
Minimum Inhibitory Concentration (Serratia marcescens): > 200 µM
Minimum Inhibitory Concentration (Shigella flexneri): 200 µM
Minimum Inhibitory Concentration [5]: 1.56 µM
Minimum Inhibitory Concentration [6]: 1.56 µM
Minimum Inhibitory Concentration [7]: 12.5 µM
Minimum Inhibitory Concentration [8]: 12.5 µM
Minimum Inhibitory Concentration [9]: 12.5 µM
Minimum Inhibitory Concentration [10]: 1.56 µM
Minimum Inhibitory Concentration (Streptococcus agalactiae): ≤ 0.78 µM
Minimum Inhibitory Concentration (Streptococcus faecalis): 6.25 µM
Minimum Inhibitory Concentration [11]: > 200 µM
Minimum Inhibitory Concentration (Corynebacterium JKM-4754): 0.78 µM
Minimum Inhibitory Concentration (Corynebacterium JKR-2285): 0.78 µM
Minimum Inhibitory Concentration (Escherichia coli Ceph^R): 3.12 µM
Minimum Inhibitory Concentration [12]: ≤ 0.78 µM
Minimum Inhibitory Concentration [13]: ≤ 0.78 µM
Minimum Inhibitory Concentration [14]: ≤ 0.78 µM
insensitivity / resistance ([15]; P. aeruginosa, S. marcescens and K. pneumoniae): inherently insensitive
sensitivity ([15]; S. aureus strains, Corynebacterium JK strains, S. faecalis, H. influenzae 487, E. coli JSR-O and E. cloacae): sensitive
sensitivity ([15]; S. epidermidis 1239 P^R M^R and M-1554 P^S M^S): exquisitely sensitive
antibacterial potency of dipeptide versus beta-Cl-LAla [16]: consistently and dramatically more potent an antibacterial agent than is beta-Cl-LAla alone
